According to patent US11759462B2, “Spirocyclic compounds as tryptophan hydroxylase inhibitors” (priority 2013, dated 2023):

Target: T1, Recombinant human TPH1 (MBP tagged) (Homo sapiens, UniProt P17752)
T1 construct: cloning full length human TPH1 cDNA in to a bacterial pMAL-c5E expression vector; made in house; host or cells: E. coli BL21 (DE3)
T1 sequence (P17752 1-444): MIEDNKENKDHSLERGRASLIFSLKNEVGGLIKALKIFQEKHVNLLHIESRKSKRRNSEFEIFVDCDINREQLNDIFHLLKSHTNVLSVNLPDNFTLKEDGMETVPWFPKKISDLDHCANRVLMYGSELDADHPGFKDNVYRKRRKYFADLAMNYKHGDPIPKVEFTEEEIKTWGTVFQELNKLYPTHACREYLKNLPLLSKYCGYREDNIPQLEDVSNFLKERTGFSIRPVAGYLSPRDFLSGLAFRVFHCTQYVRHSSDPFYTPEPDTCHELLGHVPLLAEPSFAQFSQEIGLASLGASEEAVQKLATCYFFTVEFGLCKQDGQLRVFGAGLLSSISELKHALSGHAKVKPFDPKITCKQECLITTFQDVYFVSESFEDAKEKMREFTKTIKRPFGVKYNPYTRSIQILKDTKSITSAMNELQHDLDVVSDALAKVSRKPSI
Test: TPH1 in vitro inhibition assay (kinetic fluorescence)
Format: biochemical
Conditions: TPH1 Range (TPH1 inhibition IC50)
Procedure, shortened: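 Final mix: 15 nM MBP-TPH1, 30 μM Trp, 36 μM 6-methyltetrahydropterin, 25 μM ferrous ammonium sulfate, 50 mM MES pH 7.1, 1% DMSO, room temperature.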

Row | Structure (SMILES) | IC50 [nM]
1 | Nc1nc(O[C@H](c2ccc(Cl)cc2-c2cccc(Cl)c2)C(F)(F)F)cc(N2CCC3(CC2)CN[C@H](C(=O)O)C3)n1 [Example 34a, (S)-8-(2-amino-6-((R)-1-(3′,5-dichloro-[1,1′-biphenyl]-2-yl)-2,2,2-trifluoroethoxy)pyrimidin-4-yl)-2,8-diazaspiro[4.5]decane-3-carboxylic acid] | < 50
2 | NC(=O)c1cccc(-c2cc(Cl)ccc2[C@@H](Oc2cc(N3CCC4(CC3)CN[C@H](C(=O)O)C4)nc(N)n2)C(F)(F)F)c1 [Example 34ac, (S)-8-(2-amino-6-((R)-1-(3′-carbamoyl-5-chloro-[1,1′-biphenyl]-2-yl)-2,2,2-trifluoroethoxy)pyrimidin-4-yl)-2,8-diazaspiro[4.5]decane-3-carboxylic acid] | < 50
3 | CS(=O)(=O)c1ccc(-c2cc(Cl)ccc2[C@@H](Oc2cc(N3CCC4(CC3)CN[C@H](C(=O)O)C4)nc(N)n2)C(F)(F)F)cc1 [Example 34ad, (S)-8-(2-amino-6-((R)-1-(5-chloro-4′-(methylsulfonyl)-[1,1′-biphenyl]-2-yl)-2,2,2-trifluoroethoxy)pyrimidin-4-yl)-2,8-diazaspiro[4.5]decane-3-carboxylic acid] | 300 to 3000
4 | Nc1nc(O[C@H](c2ccc(Cl)cc2-c2ccc(S(N)(=O)=O)cc2)C(F)(F)F)cc(N2CCC3(CC2)CN[C@H](C(=O)O)C3)n1 [Example 34ae, (S)-8-(2-amino-6-((R)-1-(5-chloro-4′-sulfamoyl-[1,1′-biphenyl]-2-yl)-2,2,2-trifluoroethoxy)pyrimidin-4-yl)-2,8-diazaspiro[4.5]decane-3-carboxylic acid] | 300 to 3000
5 | CCOc1ccc(-c2cc(Cl)ccc2[C@@H](Oc2cc(N3CCC4(CC3)CN[C@H](C(=O)O)C4)nc(N)n2)C(F)(F)F)cc1Cl [Example 34ai, (S)-8-(2-amino-6-((R)-1-(3′,5-dichloro-4′-ethoxy-[1,1′-biphenyl]-2-yl)-2,2,2-trifluoroethoxy)pyrimidin-4-yl)-2,8-diazaspiro[4.5]decane-3-carboxylic acid] | 50 to 300

Same assay, conditions: read-out: TPH1 Range (TPH1 inhibition IC50)

Row | Structure (SMILES) | IC50 [nM]
6 | CCOc1ccc(-c2ccc([C@@H](Oc3cc(N4CCC5(CC4)CN[C@H](C(=O)O)C5)nc(C)n3)C(F)(F)F)c(-n3ccc(C)n3)c2)cc1 [Example 29s, (S)-8-(6-((R)-1-(4′-ethoxy-3-(3-methyl-1H-pyrazol-1-yl)-[1,1′-biphenyl]-4-yl)-2,2,2-trifluoroethoxy)-2-methylpyrimidin-4-yl)-2,8-diazaspiro[4.5]decane-3-carboxylic acid] | < 50
7 | Cc1ccn(-c2cc(-c3ccc(OC(F)(F)F)cc3)ccc2[C@@H](Oc2cc(N3CCC4(CC3)CN[C@H](C(=O)O)C4)nc(C)n2)C(F)(F)F)n1 [Example 29t, (S)-8-(2-methyl-6-((R)-2,2,2-trifluoro-1-(3-(3-methyl-1H-pyrazol-1-yl)-4′-(trifluoromethoxy)-[1,1′-biphenyl]-4-yl)ethoxy)pyrimidin-4-yl)-2,8-diazaspiro[4.5]decane-3-carboxylic acid] | 50 to 300
8 | COC(=O)c1cccc(-c2ccc([C@@H](Oc3cc(N4CCC5(CC4)CN[C@H](C(=O)O)C5)nc(C)n3)C(F)(F)F)c(-n3ccc(C)n3)c2)c1 [Example 29u, (S)-8-(2-methyl-6-((R)-2,2,2-trifluoro-1-(3′-(methoxycarbonyl)-3-(3-methyl-1H-pyrazol-1-yl)-[1,1′-biphenyl]-4-yl)ethoxy)pyrimidin-4-yl)-2,8-diazaspiro[4.5]decane-3-carboxylic acid] | 50 to 300
9 | Nc1nc(O[C@H](c2ccc(Cl)cc2N2CCCC2=O)C(F)(F)F)cc(N2CCC3(CC2)CN[C@H](C(=O)O)C3)n1 [Example 33, (S)-8-(2-amino-6-((R)-1-(4-chloro-2-(2-oxopyrrolidin-1-yl)phenyl)-2,2,2-trifluoroethoxy)pyrimidin-4-yl)-2,8-diazaspiro[4.5]decane-3-carboxylic acid] | 50 to 300
10 | C=CC(=O)NCc1cccc(-c2cc(Cl)ccc2[C@@H](Oc2cc(N3CCC4(CC3)CN[C@H](C(=O)O)C4)nc(N)n2)C(F)(F)F)c1 [Example 34aa, (S)-8-(6-((R)-1-(3′-(acrylamidomethyl)-5-chloro-[1,1′-biphenyl]-2-yl)-2,2,2-trifluoroethoxy)-2-aminopyrimidin-4-yl)-2,8-diazaspiro[4.5]decane-3-carboxylic acid] | < 50
11 | Nc1nc(O[C@H](c2ccc(Cl)cc2-c2cccc(C(=O)O)c2)C(F)(F)F)cc(N2CCC3(CC2)CN[C@H](C(=O)O)C3)n1 [Example 34ab, (S)-8-(2-amino-6-((R)-1-(3′-carboxy-5-chloro-[1,1′-biphenyl]-2-yl)-2,2,2-trifluoroethoxy)pyrimidin-4-yl)-2,8-diazaspiro[4.5]decane-3-carboxylic acid] | 300 to 3000
12 | Nc1nc(O[C@H](c2ccc(Cl)cc2-c2ccc(Cl)c(F)c2)C(F)(F)F)cc(N2CCC3(CC2)CN[C@H](C(=O)O)C3)n1 [Example 34af, (S)-8-(2-amino-6-((R)-1-(4′,5-dichloro-3′-fluoro-[1,1′-biphenyl]-2-yl)-2,2,2-trifluoroethoxy)pyrimidin-4-yl)-2,8-diazaspiro[4.5]decane-3-carboxylic acid] | < 50
13 | CC(C)Oc1cccc(-c2cc(Cl)ccc2[C@@H](Oc2cc(N3CCC4(CC3)CN[C@H](C(=O)O)C4)nc(N)n2)C(F)(F)F)c1 [Example 34ag, (S)-8-(2-amino-6-((R)-1-(5-chloro-3′-isopropoxy-[1,1′-biphenyl]-2-yl)-2,2,2-trifluoroethoxy)pyrimidin-4-yl)-2,8-diazaspiro[4.5]decane-3-carboxylic acid] | < 50
14 | CCOc1cccc(-c2cc(Cl)ccc2[C@@H](Oc2cc(N3CCC4(CC3)CN[C@H](C(=O)O)C4)nc(N)n2)C(F)(F)F)c1 [Example 34ah, (S)-8-(2-amino-6-((R)-1-(5-chloro-3′-ethoxy-[1,1′-biphenyl]-2-yl)-2,2,2-trifluoroethoxy)pyrimidin-4-yl)-2,8-diazaspiro[4.5]decane-3-carboxylic acid] | < 50
15 | Cc1ccc(-c2cc(Cl)ccc2[C@@H](Oc2cc(N3CCC4(CC3)CN[C@H](C(=O)O)C4)nc(N)n2)C(F)(F)F)cc1Cl [Example 34aj, (S)-8-(2-amino-6-((R)-1-(3′,5-dichloro-4′-methyl-[1,1′-biphenyl]-2-yl)-2,2,2-trifluoroethoxy)pyrimidin-4-yl)-2,8-diazaspiro[4.5]decane-3-carboxylic acid] | 50 to 300
16 | CC(C)Oc1ccc(-c2cc(Cl)ccc2[C@@H](Oc2cc(N3CCC4(CC3)CN[C@H](C(=O)O)C4)nc(N)n2)C(F)(F)F)cc1Cl [Example 34ak, (S)-8-(2-amino-6-((R)-1-(3′,5-dichloro-4′-isopropoxy-[1,1′-biphenyl]-2-yl)-2,2,2-trifluoroethoxy)pyrimidin-4-yl)-2,8-diazaspiro[4.5]decane-3-carboxylic acid] | 50 to 300
17 | CC(C)Oc1ccc(-c2cc(Cl)ccc2[C@@H](Oc2cc(N3CCC4(CC3)CN[C@H](C(=O)O)C4)nc(N)n2)C(F)(F)F)cc1F [Example 34al, (S)-8-(2-amino-6-((R)-1-(5-chloro-3′-fluoro-4′-isopropoxy-[1,1′-biphenyl]-2-yl)-2,2,2-trifluoroethoxy)pyrimidin-4-yl)-2,8-diazaspiro[4.5]decane-3-carboxylic acid] | 3000 to 10000
